In publication PMC7089538, “The effects of intra-stomach obestatin administration on intestinal contractility in neonatal piglets fed milk formula” (PLoS ONE, 2020):
Like-named read-outs stand apart in the source and are kept apart here. Marks after values point to notes of the source that are not given here. Where no end group is shown, it is not given here.

What was measured:
middle jejunum [1] = assay: Spontaneous contractility of whole-thickness preparations in organ bath after 6-day enteral obestatin; type: in vivo, piglets (Polish Landrace x Pietrain); conditions: 6 days, middle jejunum (Fig 2)
Protocol: (§1) Piglets' BW was recorded every morning. […] The protein concentration in the milk formula was 20%. […] The tissues were attached to isotonic transducers (Letica Scientific Instruments, Spain) under a load of 1.0 g that were coupled with a PowerLab recording system (ADInstruments, Sydney, Australia). […] The tissues were then washed and allowed to equilibrate. […] Half of randomly selected jejunal segments were pre-treated with atropine.

duodenum [2] = assay: as above; type: in vivo, piglets (Polish Landrace x Pietrain); conditions: O15: obestatin 15 μg/kg BW intra-stomach every 8 h, 6 days; duodenal segment (Fig 2)
Protocol: as §1

duodenum [3] = conditions: duodenum strips; for EFS-evoked amplitude of contraction: 6 days, mean ± SEM
middle jejunum [4] = assay: Histology: thickness of intestinal muscularis layer; type: in vivo, piglets (Polish Landrace x Pietrain); conditions: 6 days, H&E histometry, mean ± SEM
Protocol: (§2) Piglets' BW was recorded every morning. […] The protein concentration in the milk formula was 20%. […] Briefly, the samples were routinely embedded in paraffin and cut into 4.5 μm sections and applied to silane-treated slides. Next, the sections were immersed in xylene for dewaxing and then in descending grades of alcohol for rehydration. The segments were routinely stained using hematoxylin and eosin.

duodenum [5] = assay: as above; type: in vivo, piglets (Polish Landrace x Pietrain); conditions: 6 days, H&E histometry, mean ± SEM
Protocol: as §2

middle jejunum [6] = conditions: middle jejunum strips; for EFS-evoked amplitude of contraction: 6 days, mean ± SEM
[7] = O10: obestatin 10 μg/kg BW intra-stomach every 8 h
[8] = O15: obestatin 15 μg/kg BW intra-stomach every 8 h
[9] = O2: obestatin 2 μg/kg BW intra-stomach every 8 h, Basal, EFS 0.5 Hz
[10] = O2: obestatin 2 μg/kg BW intra-stomach every 8 h, Basal, EFS 5 Hz
[11] = O2: obestatin 2 μg/kg BW intra-stomach every 8 h, Basal, EFS 50 Hz
[12] = O2: obestatin 2 μg/kg BW intra-stomach every 8 h, TTX 10^−6 M, EFS 0.5 Hz
[13] = O2: obestatin 2 μg/kg BW intra-stomach every 8 h, TTX 10^−6 M, EFS 5 Hz
[14] = O2: obestatin 2 μg/kg BW intra-stomach every 8 h, TTX 10^−6 M, EFS 50 Hz
[15] = O10: obestatin 10 μg/kg BW intra-stomach every 8 h, Basal, EFS 0.5 Hz
[16] = O10: obestatin 10 μg/kg BW intra-stomach every 8 h, Basal, EFS 5 Hz
[17] = O10: obestatin 10 μg/kg BW intra-stomach every 8 h, Basal, EFS 50 Hz
[18] = O10: obestatin 10 μg/kg BW intra-stomach every 8 h, TTX 10^−6 M, EFS 0.5 Hz
[19] = O10: obestatin 10 μg/kg BW intra-stomach every 8 h, TTX 10^−6 M, EFS 5 Hz
[20] = O10: obestatin 10 μg/kg BW intra-stomach every 8 h, TTX 10^−6 M, EFS 50 Hz
[21] = O15: obestatin 15 μg/kg BW intra-stomach every 8 h, Basal, EFS 0.5 Hz
[22] = O15: obestatin 15 μg/kg BW intra-stomach every 8 h, Basal, EFS 5 Hz
[23] = O15: obestatin 15 μg/kg BW intra-stomach every 8 h, Basal, EFS 50 Hz
[24] = O15: obestatin 15 μg/kg BW intra-stomach every 8 h, TTX 10^−6 M, EFS 0.5 Hz
[25] = O15: obestatin 15 μg/kg BW intra-stomach every 8 h, TTX 10^−6 M, EFS 5 Hz
[26] = O15: obestatin 15 μg/kg BW intra-stomach every 8 h, TTX 10^−6 M, EFS 50 Hz
[27] = TTX 10^−6 M, responses similar to saline-treated preparations
[28] = O2: obestatin 2 μg/kg BW intra-stomach every 8 h

Substance: FNAPFDVGIKLSGAQYQQHGRAL-NH2 [obestatin]
- amplitude of spontaneous contractions compared to C (middle jejunum [1]; [7]): significant increase in the amplitude of contractions was observed in C piglets in comparison to O10 and O15 groups
- amplitude of spontaneous contractions compared to C (middle jejunum [1]; [8]): significant increase in the amplitude of contractions was observed in C piglets in comparison to O10 and O15 groups
- amplitude of spontaneous contractions compared to C (duodenum [2]): significantly higher
- EFS-evoked amplitude of contraction (duodenum [3]; [9]): 2.53 ± 0.31^a mm
- EFS-evoked amplitude of contraction (duodenum [3]; [10]): 2.78 ± 0.35^a mm
- EFS-evoked amplitude of contraction (duodenum [3]; [11]): 2.95 ± 0.28^a^c mm
- EFS-evoked amplitude of contraction (duodenum [3]; [12]): 0.48 ± 0.11 mm
- EFS-evoked amplitude of contraction (duodenum [3]; [13]): 0.54 ± 0.11 mm
- EFS-evoked amplitude of contraction (duodenum [3]; [14]): 0.82 ± 0.21 mm
- EFS-evoked amplitude of contraction (duodenum [3]; [15]): 1.08 ± 0.26^b mm
- EFS-evoked amplitude of contraction (duodenum [3]; [16]): 1.25 ± 0.32^b mm
- EFS-evoked amplitude of contraction (duodenum [3]; [17]): 1.20 ± 0.29^a^d mm
- EFS-evoked amplitude of contraction (duodenum [3]; [18]): 0.56 ± 0.16 mm
- EFS-evoked amplitude of contraction (duodenum [3]; [19]): 0.59 ± 0.15 mm
- EFS-evoked amplitude of contraction (duodenum [3]; [20]): 0.86 ± 0.22 mm
- EFS-evoked amplitude of contraction (duodenum [3]; [21]): 2.34 ± 0.30^a mm
- EFS-evoked amplitude of contraction (duodenum [3]; [22]): 2.74 ± 0.37^a mm
- EFS-evoked amplitude of contraction (duodenum [3]; [23]): 3.38 ± 0.36^b^c mm
- EFS-evoked amplitude of contraction (duodenum [3]; [24]): 0.40 ± 0.09 mm
- EFS-evoked amplitude of contraction (duodenum [3]; [25]): 0.46 ± 0.01 mm
- EFS-evoked amplitude of contraction (duodenum [3]; [26]): 0.77 ± 0.22 mm
- effect of obestatin on EFS-evoked contraction following pre-incubation with TTX (duodenum [3]; [27]): the effects of obestatin were blocked
- Thickness of muscularis layer (middle jejunum [4]; [28]): 88 ± 9^a μm
- Thickness of muscularis layer (middle jejunum [4]; [7]): 63 ± 7^b μm
- Thickness of muscularis layer (middle jejunum [4]; [8]): 66 ± 4^b μm
- Thickness of muscularis layer (duodenum [5]; [28]): 106 ± 11^b μm
- Thickness of muscularis layer (duodenum [5]; [7]): 107 ± 8^b μm
- Thickness of muscularis layer (duodenum [5]; [8]): 89 ± 8^b μm
- EFS-evoked amplitude of contraction (middle jejunum [6]; [9]): 0.53 ± 0.26^a^c mm
- EFS-evoked amplitude of contraction (middle jejunum [6]; [10]): 0.70 ± 0.35^a mm
- EFS-evoked amplitude of contraction (middle jejunum [6]; [11]): 1.22 ± 0.59^a mm
- EFS-evoked amplitude of contraction (middle jejunum [6]; [12]): 0.17 ± 0.07 mm
- EFS-evoked amplitude of contraction (middle jejunum [6]; [13]): 0.20 ± 0.08 mm
- EFS-evoked amplitude of contraction (middle jejunum [6]; [14]): 0.31 ± 0.17 mm
- EFS-evoked amplitude of contraction (middle jejunum [6]; [15]): 1.75 ± 0.18^a^d mm
- EFS-evoked amplitude of contraction (middle jejunum [6]; [16]): 1.75 ± 0.18^a^b mm
- EFS-evoked amplitude of contraction (middle jejunum [6]; [17]): 1.49 ± 0.30^a mm
- EFS-evoked amplitude of contraction (middle jejunum [6]; [18]): 0.28 ± 0.10 mm
- EFS-evoked amplitude of contraction (middle jejunum [6]; [19]): 0.30 ± 0.12 mm
- EFS-evoked amplitude of contraction (middle jejunum [6]; [20]): 0.45 ± 0.15 mm
- EFS-evoked amplitude of contraction (middle jejunum [6]; [21]): 2.47 ± 0.23^b^d mm
- EFS-evoked amplitude of contraction (middle jejunum [6]; [22]): 2.74 ± 0.37^b mm
- EFS-evoked amplitude of contraction (middle jejunum [6]; [23]): 3.76 ± 0.29^b mm
- EFS-evoked amplitude of contraction (middle jejunum [6]; [24]): 0.46 ± 0.23 mm
- EFS-evoked amplitude of contraction (middle jejunum [6]; [25]): 0.34 ± 0.11 mm
- EFS-evoked amplitude of contraction (middle jejunum [6]; [26]): 0.61 ± 0.27 mm
- effect of obestatin on EFS-evoked contraction following pre-incubation with TTX (middle jejunum [6]; [27]): the effects of obestatin were blocked
